# Reference: article PMC4830356 (ACS chemical neuroscience, 2015)
# How the values were obtained:
# [1] = biological target: T1, human KOR (Homo sapiens, UniProt P41145); experiment: [35S]GTPγS coupling; type: biochemical
# [2] = biological target: T1, human KOR; experiment: βarrestin2 recruitment, high content imaging in U2OS-hKOR-βarr2-GFP cells; type: cell-based
# [3] = biological target: T1, human KOR; experiment: In-cell western ERK1/2 phosphorylation in CHO-hKOR cells; type: cell-based
# [4] = tested on: human KOR; experiment: Bias analysis by fitting to the operational model; details: relative to U69,593; for ΔΔLogR(G−ERK): G protein coupling vs ERK1/2 phosphorylation; for ΔΔLogR(G−ERK) / ΔΔLogR(G−βarr2): ± SEM; for ΔΔLogR(G−βarr2): G protein coupling vs βarrestin2 recruitment; for bias factor (10^ΔΔLogR) G/ERK: antilog of ΔΔLogR(G−ERK); for bias factor (10^ΔΔLogR) G/βarr2: antilog of ΔΔLogR(G−βarr2)
# T1 sequence (P41145 whole entry): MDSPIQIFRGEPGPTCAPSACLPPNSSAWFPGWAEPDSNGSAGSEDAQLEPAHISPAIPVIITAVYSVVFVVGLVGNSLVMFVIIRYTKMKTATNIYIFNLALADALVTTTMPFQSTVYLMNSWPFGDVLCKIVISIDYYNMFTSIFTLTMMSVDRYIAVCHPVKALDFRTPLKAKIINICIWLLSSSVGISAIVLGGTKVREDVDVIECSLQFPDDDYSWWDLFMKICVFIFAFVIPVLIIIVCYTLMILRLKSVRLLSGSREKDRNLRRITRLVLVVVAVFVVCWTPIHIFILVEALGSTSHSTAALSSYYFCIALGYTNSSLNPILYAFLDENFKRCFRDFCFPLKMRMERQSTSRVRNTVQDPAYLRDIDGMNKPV
Compound,EC50 [1],"G protein assay EMAX, % of max U69,593 [1]",EC50 [2],"βarrestin2 assay % U69,593 at 10 μM [2]","βarrestin2 assay EMAX, % of max U69,593 [2]",EC50 [3],"ERK1/2 phosphorylation % U69,593 at 10 μM [3]","ERK1/2 phosphorylation EMAX, % of max U69,593 [3]",ΔΔLogR(G−ERK) [4],ΔΔLogR(G−βarr2) [4],bias factor (10^ΔΔLogR) G/ERK [4],bias factor (10^ΔΔLogR) G/βarr2 [4]
"FC(F)(F)c1ccc(Cl)c(CSc2nnc(-c3ccccn3)n2Cc2ccco2)c1 [1.1, 2-(5-((2-Chloro-5-(trifluoromethyl)benzyl)thio)-4-(furan-2-yl-methyl)-4H-1,2,4-triazol-3-yl)pyridine]",31.8 ± 6.4 nM,"98 ± 1 % of max U69,593",8720 ± 2180 nM,"29 ± 5 % U69,593","56 ± 5 % of max U69,593",242 ± 46.9 nM,"114 ± 7 % U69,593","120 ± 10 % of max U69,593",2.0 ± 0.19,1.7 ± 0.19,93,47
"Brc1ccc(CSc2nnc(-c3ccccn3)n2Cc2cccnc2)cc1 [3.3, 2-(5-((4-Bromobenzyl)thio)-4-(pyridin-3-ylmethyl)-4H-1,2,4-triazol-3-yl)pyridine]",149 ± 11.5 nM,"94 ± 4 % of max U69,593",> 31000 nM,"10 ± 7 % U69,593",–,227 ± 40.1 nM,"112 ± 6 % U69,593","117 ± 7 % of max U69,593",1.1 ± 0.19,1.6 ± 0.22,14,37
"Brc1ccc(CSc2nnc(-c3ccccn3)n2Cc2cccs2)cc1 [3.2, 2-(5-((4-Bromobenzyl)thio)-4-(thiophen-2-ylmethyl)-4H-1,2,4-triazol-3-yl)pyridine]",66.6 ± 15.1 nM,"98 ± 1 % of max U69,593",1940 ± 90.9 nM,"87 ± 3 % U69,593","94 ± 2 % of max U69,593",672 ± 113 nM,"135 ± 8 % U69,593","149 ± 13 % of max U69,593",1.7 ± 0.22,0.9 ± 0.22,46,7
"Ic1ccc(CSc2nnc(-c3ccccn3)n2Cc2ccco2)cc1 [2.1, 2-(5-((4-Iodobenzyl)thio)-4-(furan-2-ylmethyl)-4H-1,2,4-triazol-3-yl)pyridine]",30.3 ± 4.5 nM,"95 ± 1 % of max U69,593",13500 ± 8290 nM,"105 ± 2 % U69,593","228 ± 96 % of max U69,593",222 ± 22.9 nM,"113 ± 8 % U69,593","131 ± 10 % of max U69,593",1.9 ± 0.19,1.7 ± 0.19,88,49
"FC(F)(F)c1ccc(Cl)c(CSc2nnc(-c3ccccn3)n2Cc2cccs2)c1 [1.2, 2-(5-((2-Chloro-5-(trifluoromethyl)benzyl)thio)-4-(thiophen-2-ylmethyl)-4H-1,2,4-triazol-3-yl)pyridine]",27.2 ± 3.5 nM,"98 ± 1 % of max U69,593",6250 ± 1440 nM,"94 ± 8 % U69,593","147 ± 25 % of max U69,593",594 ± 115 nM,"128 ± 6 % U69,593","139 ± 9 % of max U69,593",2.6 ± 0.19,–,419,122
"Ic1ccc(CSc2nnc(-c3ccccn3)n2Cc2cccnc2)cc1 [2.3, 2-(5-((4-Iodobenzyl)thio)-4-(pyridin-3-ylmethyl)-4H-1,2,4-tri-azol-3-yl)pyridine]",–,"98 ± 3 % of max U69,593",–,"46 ± 3 % U69,593","101 ± 7 % of max U69,593",–,"110 ± 8 % U69,593","109 ± 6 % of max U69,593",1.2 ± 0.22,1.4 ± 0.22,16,25
"Ic1ccc(CSc2nnc(-c3ccccn3)n2Cc2cccs2)cc1 [2.2, 2-(5-((4-Iodobenzyl)thio)-4-(thiophen-2-ylmethyl)-4H-1,2,4-triazol-3-yl)pyridine]",40.3 ± 8.5 nM,"100 ± 1 % of max U69,593",3570 ± 680 nM,"94 ± 9 % U69,593","123 ± 19 % of max U69,593",789 ± 159 nM,"131 ± 4 % U69,593","143 ± 4 % of max U69,593",2.5 ± 0.19,1.5 ± 0.19,304,33
"Brc1ccc(CSc2nnc(-c3ccccn3)n2Cc2ccco2)cc1 [3.1, 2-(5-((4-Bromobenzyl)thio)-4-(furan-2-ylmethyl)-4H-1,2,4-tri-azol-3-yl)pyridine]",84.7 ± 18.4 nM,"91 ± 3 % of max U69,593",> 31000 nM,"58 ± 8 % U69,593",–,340 ± 25.1 nM,"114 ± 4 % U69,593","125 ± 2 % of max U69,593",1.7 ± 0.20,1.2 ± 0.20,47,17
"FC(F)(F)c1ccc(Cl)c(CSc2nnc(-c3ccccn3)n2Cc2cccnc2)c1 [1.3, 2-(5-((2-Chloro-5-(trifluoromethyl)benzyl)thio)-4-(pyridin-3-ylmethyl)-4H-1,2,4-triazol-3-yl)pyridine]",115 ± 8.9 nM,"97 ± 1 % of max U69,593",10100 ± 3250 nM,"38 ± 5 % U69,593","65 ± 6 % of max U69,593",108 ± 24.5 nM,"107 ± 7 % U69,593","114 ± 8 % of max U69,593",1.0 ± 0.19,1.2 ± 0.20,9,15
